pIC50: −log10 of the molar value.
biological target: T1, human kinase Mps-1 (Homo sapiens, UniProt P33981); experiment: Mps-1 kinase assay (HTRF); assay type: biochemical
T1 construct: N-terminally GST-tagged human full length recombinant Mps-1 kinase; GST (N); purchased Invitrogen, Karslruhe, Germany PV4071
T1 sequence (P33981 1-857): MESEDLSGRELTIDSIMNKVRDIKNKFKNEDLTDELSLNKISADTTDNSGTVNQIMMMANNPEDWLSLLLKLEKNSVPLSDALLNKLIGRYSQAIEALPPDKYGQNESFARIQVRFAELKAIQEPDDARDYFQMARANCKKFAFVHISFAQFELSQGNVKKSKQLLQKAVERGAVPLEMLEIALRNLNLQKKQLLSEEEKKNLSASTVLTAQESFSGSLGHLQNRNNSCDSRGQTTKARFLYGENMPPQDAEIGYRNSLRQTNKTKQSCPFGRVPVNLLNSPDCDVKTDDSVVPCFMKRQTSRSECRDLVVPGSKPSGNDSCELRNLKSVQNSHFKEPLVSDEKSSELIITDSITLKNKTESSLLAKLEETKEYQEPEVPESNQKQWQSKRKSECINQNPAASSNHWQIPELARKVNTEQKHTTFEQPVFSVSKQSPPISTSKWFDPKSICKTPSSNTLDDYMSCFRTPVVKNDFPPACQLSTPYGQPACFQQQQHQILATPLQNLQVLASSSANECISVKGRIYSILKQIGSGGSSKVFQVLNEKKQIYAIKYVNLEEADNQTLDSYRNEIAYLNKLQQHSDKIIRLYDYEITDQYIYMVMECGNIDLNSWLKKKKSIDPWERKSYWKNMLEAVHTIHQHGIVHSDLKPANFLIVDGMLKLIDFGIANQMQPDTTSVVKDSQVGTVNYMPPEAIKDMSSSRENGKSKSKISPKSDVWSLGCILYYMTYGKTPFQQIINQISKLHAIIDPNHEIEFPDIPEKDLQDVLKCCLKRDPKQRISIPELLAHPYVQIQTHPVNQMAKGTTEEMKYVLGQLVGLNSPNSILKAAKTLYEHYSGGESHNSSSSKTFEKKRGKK
Experimental: The human kinase Mps-1 phosphorylates a biotinylated substrate peptide. Detection of the phosphorylated product is achieved by homogenous time-resolved fluorescence resonance energy transfer (HTRF) from Europium-labelled anti-phospho-Serine/Threonine antibody as donor to streptavidin labelled with cross-linked allophycocyanin (SA-XLent) as acceptor. Compounds are tested for their inhibition of the kinase activity.
N-terminally GST-tagged human full length recombinant Mps-1 kinase (purchased from Invitrogen, Karslruhe, Germany, cat. no PV4071) was used. As substrate for the kinase reaction a biotinylated peptide of the amino-acid sequence […] (C-terminus in amide form, purchased from Biosynthan GmbH, Berlin) was used.
The concentration of Mps-1 in the assay was adjusted to the activity of the enzyme lot and was chosen appropriate to have the assay in the linear range, typical enzyme concentrations were in the range of about 1 nM (final conc. in the 5 μl assay volume).
The resulting mixture was incubated 1 h at 22° C. to allow the binding of the phosphorylated peptide to the anti-phospho(Ser/Thr)-Europium-antibody. Subsequently the amount of phosphorylated substrate was evaluated by measurement of the resonance energy transfer from the Europium-labelled anti-phospho(Ser/Thr) antibody to the Streptavidin-XLent.

| SMILES | pIC50 |
| --- | --- |
| COc1cc(C(=O)N(C)CCN(C)C(=O)OC(C)(C)C)ccc1Nc1nc2ccc(-c3ccc(C(=O)NCC(F)(F)F)cc3)cn2n1 [Example 11.021, tert-butyl {2-[{3-methoxy-4-[(6-{4-[(2,2,2-trifluoroethyl)carbamoyl]phenyl}[1,2,4]triazolo [1,5-a]pyridin-2-yl)amino]benzoyl}(methyl)amino]ethyl}methyl-carbamate] | 8.46 |
| COc1cc(C(=O)NC(C)(C)CO)ccc1Nc1nc2ccc(-c3ccc(C(=O)NCC(C)C)cc3)cn2n1 [Example 11.022, N-(1-hydroxy-2-methylpropan-2-yl)-3-methoxy-4-[(6-{4-[(2-methylpropyl)carbamoyl]phenyl}[1,2,4]triazolo [1,5-a]pyridin-2-yl)amino]benzamide] | 8.36 |
| COc1cc(C(=O)NC(C)(C)CO)ccc1Nc1nc2ccc(-c3ccc(C(=O)NCCC(F)(F)F)cc3)cn2n1 [Example 11.023, N-(1-hydroxy-2-methylpropan-2-yl)-3-methoxy-4-[(6-{4-[(3,3,3-trifluoropropyl)carbamoyl]phenyl}[1,2,4]tria-zolo[1,5-a]pyridin-2-yl)amino]benzamide] | 8.28 |
| COc1cc(C(=O)NC(C)(C)CO)ccc1Nc1nc2ccc(-c3ccc(C(=O)NCC(F)(F)F)c(C)c3)cn2n1 [Example 11.024, 4-[2-({4-[(1-hydroxy-2-methylpropan-2-yl)carbamoyl]-2-methoxyphenyl}amino)[1,2,4]triazolo[1,5-a]pyridin-6-yl]-2-methyl-N-(2,2,2-trifluoroethyl)benzamide] | 8.42 |
| COc1cc(C(=O)NCC(C)(C)O)ccc1Nc1nc2ccc(-c3ccc(C(=O)NCCC(F)(F)F)cc3)cn2n1 [Example 11.025, N-(2-hydroxy-2-methylpropyl)-3-methoxy-4-[(6-{4-[(3,3,3-trifluoropropyl)carbamoyl]phenyl}[1,2,4]tria-zolo[1,5-a]pyridin-2-yl)amino]benzamide] | 8.14 |
| COc1cc(C(=O)NC(C)(C)CO)ccc1Nc1nc2ccc(-c3ccc(C(=O)NCC(F)(F)F)c(Cl)c3)cn2n1 [Example 11.026, 2-chloro-4-[2-({4-[(1-hydroxy-2-methylpropan-2-yl)carbamoyl]-2-methoxyphenyl}amino)[1,2,4]triazolo[1,5-a]pyridin-6-yl]-N-(2,2,2-trifluoroethyl)benzamide] | 8.39 |

Stronger by pIC50, values ahead:

| pIC50 | SMILES |
| --- | --- |
| 8.76 | COc1cc(C(=O)NC(C)(C)CO)ccc1Nc1nc2ccc(-c3ccc(C(=O)NCC(F)(F)F)cc3)cn2n1 [Example 11.017, N-(1-hydroxy-2-methylpropan-2-yl)-3-methoxy-4-[(6-{4-[(2,2,2-trifluoroethyl)carbamoyl]phenyl}[1,2,4]triazolo [1,5-a]pyridin-2-yl)amino]benzamide] |
| 8.99 | COc1cc(C(=O)NC(C)(C)CO)ccc1Nc1nc2ccc(-c3ccc(C(=O)NCC(F)(F)F)c(F)c3)cn2n1 [Example 11.018, 2-fluoro-4-[2-({4-[(1-hydroxy-2-methylpropan-2-yl)carbamoyl]-2-methoxyphenyl}amino)[1,2,4]triazolo[1,5-a]pyridin-6-yl]-N-(2,2,2-trifluoroethyl)benzamide] |
| 8.75 | COc1cc(C(=O)NCCO)ccc1Nc1nc2ccc(-c3ccc(C(=O)NCC(F)(F)F)cc3)cn2n1 [Example 11.019, N-(2-hydroxyethyl)-3-methoxy-4-[(6-{4-[(2,2,2-trifluoroethyl)carbamoyl]phenyl}[1,2,4]triazolo [1,5-a]pyridin-2-yl)amino]benzamide] |
| 8.52 | COc1cc(C(=O)N(C)CCN(C)C(C)=O)ccc1Nc1nc2ccc(-c3ccc(C(=O)NCC(F)(F)F)cc3)cn2n1 [Example 11.020, N-{2-[acetyl(methyl)amino]ethyl}-3-methoxy-N-methyl-4-[(6-{4-[(2,2,2-trifluoroethyl)carbamoyl]phenyl}[1,2,4]triazolo [1,5-a]pyridin-2-yl)amino]benzamide] |

— patent publication US20130121994A1, “TRIAZOLOPYRIDINE DERIVATIVES” (BAYER INTELLECTUAL PROPERTY GMBH, priority 2009, published 2013)
